Reference: ChEMBL document CHEMBL1125992, “Evaluation of bouvardin, deoxybouvardin, and RA-I - RA-VII partial structures: reassignment of the pharmacophore” (Bioorg Med Chem Lett, 1991)
In brackets after ≈: the same amount, converted by molar mass. Starred links: 1 amine or outer side, 2 acyl side, 3 side chain; linkers in the order of their positions; H or OH if unused. Non-standard residues stand in square brackets, D forms with d. Residues, ends and D or L forms follow the SMILES beside them. ξ: configuration not given here. X1 = CN(CCc1ccc(Oc2cccc(CCC(=O)[*:2])c2)cc1)[*:1]; NMeY = CN[C@@H](Cc1ccc(O)cc1)C(=O)O; ξA = CC(N)C(=O)O

test system: L1210; experiment: In vitro cytotoxicity against L1210 (murine leukemia) cells.; type: functional, cell-based; details: Mus musculus

| SMILES | IC50 [µg/mL] |
| --- | --- |
| COC(=O)[C@@H]1Cc2ccc(OC)c(c2)Oc2ccc(cc2)C[C@H](N(C)C(=O)OC(C)(C)C)C(=O)N1C | 0.03 (≈ 0.0602 µM) |
| COc1ccc(C[C@H]2C(=O)N[C@@H](C)C(=O)N(C)CCc3ccc(cc3)Oc3cccc(c3)CCC(=O)NC(C)C(=O)N[C@@H](C)C(=O)N2C)cc1 (stereo partly specified) (cyclo(A[NMeY](Me)A[X1][ξA])) | 20 (≈ 29.2 µM) |
| COc1ccc(C[C@H]2C(=O)N[C@@H](C)C(=O)N(C)[C@@H](Cc3ccc(O)cc3)C(=O)N(C)[C@@H](Cc3ccc(O)cc3)C(=O)N[C@H](C)C(=O)N[C@@H](C)C(=O)N2C)cc1 | > 100 |
| CN[C@H]1Cc2ccc(O)c(c2)Oc2ccc(cc2)C[C@@H](C(=O)O)N(C)C(=O)[C@H](C)NC(=O)[C@H](Cc2ccc(OC)cc2)N(C)C(=O)[C@H](C)NC(=O)[C@@H](C)NC1=O | 10 (≈ 12.9 µM) |
| COc1ccc(C[C@H]2C(=O)N[C@@H](C)C(=O)N(C)[C@H]3Cc4ccc(cc4)Oc4cc(ccc4O)C[C@@H](C(=O)N[C@H](C)C(=O)N[C@@H](C)C(=O)N2C)N(C)C3=O)cc1 | 0.002 (≈ 0.00264 µM) |
| COC(=O)[C@@H]1Cc2ccc(OC)c(c2)Oc2ccc(cc2)C[C@H](N(C)C(=O)OC(C)(C)C)C(=O)N1 | 0.06 (≈ 0.124 µM) |
| COc1ccc(C[C@H]2C(=O)N[C@@H](C)C(=O)N(C)[C@H]3Cc4ccc(cc4)Oc4cc(ccc4OC)C[C@@H](C(=O)N[C@H](C)C(=O)N[C@@H](C)C(=O)N2C)N(C)C3=O)cc1 | 0.002 (≈ 0.00259 µM) |
| COC(=O)[C@@H]1Cc2ccc(cc2)Oc2cc(ccc2OC(=O)c2ccccc2)C[C@H](N(C)C(=O)OCc2ccccc2)C(=O)NC(C)C(=O)N[C@@H](C)C(=O)N(C)[C@@H](Cc2ccc(OC)cc2)C(=O)N[C@@H](C)C(=O)N1C (stereo partly specified) | 10 (≈ 9.74 µM) |
| COc1ccc(C[C@H]2C(=O)N[C@@H](C)C(=O)N(C)Cc3ccccc3CC(=O)N[C@H](C)C(=O)N[C@@H](C)C(=O)N2C)cc1 | 25 (≈ 44.2 µM) |
| CN1CCc2cccc(c2)Oc2ccc(cc2)CCC1=O | > 100 |
| COC(=O)[C@@H]1Cc2ccc(OC)c(c2)Oc2ccc(cc2)CCC(=O)N1 | > 100 |
| COc1ccc(C[C@H]2C(=O)N[C@@H](C)C(=O)N(C)[C@H]3C(=O)N(C)[C@H]3C(=O)NC(C)C(=O)N[C@@H](C)C(=O)N2C)cc1 (stereo partly specified) | 50 (≈ 91.8 µM) |
| COc1ccc(C[C@H]2C(=O)N[C@@H](C)C(=O)N(C)CC(=O)N(C)CC(=O)N[C@H](C)C(=O)N[C@@H](C)C(=O)N2C)cc1 | > 100 |
| O=C1CCc2ccc(cc2)Oc2cccc(c2)CCN1 | > 100 |
| COC(=O)[C@@H]1Cc2ccc(OC)c(c2)Oc2ccc(cc2)C[C@H](N(C)C(=O)OCc2ccccc2)C(=O)N1 | 0.05 (≈ 0.0964 µM) |
| COc1ccc2cc1Oc1ccc(cc1)CCC(=O)N(C)CC2 | > 100 |
| COc1ccc(C[C@H]2C(=O)N[C@@H](C)C(=O)N(C)[C@H]3Cc4ccc(cc4)Oc4cc(ccc4OC)C[C@H](NC3=O)C(=O)N[C@H](C)C(=O)N[C@@H](C)C(=O)N2C)cc1 | 0.001 (≈ 0.00132 µM) |
| COc1ccc(C[C@H]2C(=O)N[C@@H](C)C(=O)N[C@H](C)C(=O)N[C@@H](C)C(=O)N2C)cc1 | 20 (≈ 49.4 µM) |
| COc1ccc2cc1Oc1ccc(cc1)CCC(=O)NCC2 | > 100 |
| COC(=O)[C@@H]1Cc2ccc(O)c(c2)Oc2ccc(cc2)CCC(=O)N1 | > 100 |
| COC(=O)[C@@H]1Cc2ccc(OC)c(c2)Oc2ccc(cc2)C[C@H](N(C)C(=O)OCc2ccccc2)C(=O)N1C | 0.04 (≈ 0.0751 µM) |
